The record followed here is patent US20200290950A1, “ALKAMIDE COMPOUNDS AND USES THEREOF” (NORTH CAROLINA STATE UNIVERSITY, priority 2017, published 2020).

Molecules are shown by their SMILES.

The subject of test [1] is Jurkat T cells. Put plainly: Fluo-4 calcium assay, Jurkat cells. Conditions: 1 μM A23187, 100 μM A15, at 1 min. Format: cell-based. The procedure:
(§1) FIGS. 4A-4D. A15 inhibits A23187-stimulated calcium influx in RAW 264.7 and Jurkat cells. RAW 264.7 (FIG. 4A-4B) or Jurkat cells (FIG. 4C-4D) were loaded with fluo-4 AM using the Fluo-4 AM Direct™ Calcium Assay Kit and fluorescence was measured on a microplate reader. Cells were stimulated with 1 μM A23187 in combination with vehicle only or 100 μM A15. Bar graphs represent the means±SEM of the Δ in RFU's at 1 min post-A23187 stimulation from 3 independent experiments. Statistical analysis was performed using an unpaired Student's t-test, *p<0.05.
(§2) RBL-2H3, BMMC, RAW 264.7, or Jurkat cells were plated in clear-bottom, black, 96-well plates (BioExpress, Kaysville, Utah) and incubated overnight with media only or media containing IgE anti-DNP. […] Prior to stimulation, baseline fluorescent readings were measured from triplicate wells in 5 s intervals for 1 min using a Synergy HT microplate reader with 485/20 nm excitation and 528/20 nm emission filters. Cells were then treated with either 1 μM A23187 or 50 ng/mL DNP-BSA prepared in calcium- and magnesium-containing or calcium- and magnesium-free HBSS with 20 mM HEPES, and fluorescence was measured in 10 s intervals for 2 min. […] The average baseline fluorescence of each well was subtracted from the stimulated fluorescent values to calculate the change (Δ) in RFU's and graphed as shown.

In test [2] the test system is RBL-2H3 cells. Nature of the test: Fluo-4 calcium assay, RBL-2H3 cells (Example 1). In kind it is cell-based, rat. The procedure: FIGS. 3A-3H. A15 inhibits calcium influx in RBL-2H3 cells and BMMCs. RBL-2H3 cells (FIGS. 3A-3D) and BMMCs (FIGS. 3E-3H) were plated and incubated overnight prior to treatments. For DNP-BSA treatments, overnight incubation also included 1 μg/mL IgE anti-DNP. Prior to stimulation, cells were washed and loaded with the fluorescent, calcium-sensitive dye fluo-4 AM using the Fluo-4 AM Direct™ Calcium Assay Kit and fluorescence was measured on a microplate reader. Calcium influx was triggered in all experiments using either 1 μM A23187 or 50 ng/mL DNP-BSA, as indicated. Bar graphs represent the means±SEM of the Δ in RFU's at 1 min post-A23187- or DNP-BSA-stimulation from 3 independent experiments (FIGS. 3B, 3D, 3F, 3H). Statistical analysis was performed using a one-way ANOVA with Dunnett's post-hoc test, *p<0.05, **p<0.01, ***p<0.001.
FIG. 9. A15 inhibits calcium influx in RBL-2H3 cells. Prior to stimulation, cells were washed and loaded with the fluorescent, calcium-sensitive dye fluo-4 AM using the Fluo-4 AM Direct™ Calcium Assay Kit. Cells were treated with 100 μM A15 (D, E, F), 0.25% ethanol only (vehicle) (A, B, C), 1 μM A23187 (G, H, I), and 100 μM A15 in combination with 1 μM A23187 (J, K, L) as indicated. Images were acquired at 30, 60, and 120 seconds, post-stimulation. Images are representative of several experiments.
RBL-2H3, BMMC, RAW 264.7, or Jurkat cells were plated in clear-bottom, black, 96-well plates (BioExpress, Kaysville, Utah) and incubated overnight with media only or media containing IgE anti-DNP. Cells were loaded with the calcium-sensitive dye fluo-4 AM using the Fluo-4 Direct™ Calcium Assay Kit (Thermo Fisher Scientific) according to the manufacturer's instructions by incubating at 37° C. for 30 min followed by 30 min at room temperature. Prior to stimulation, baseline fluorescent readings were measured from triplicate wells in 5 s intervals for 1 min using a Synergy HT microplate reader with 485/20 nm excitation and 528/20 nm emission filters. Cells were then treated with either 1 μM A23187 or 50 ng/mL DNP-BSA prepared in calcium- and magnesium-containing or calcium- and magnesium-free HBSS with 20 mM HEPES, and fluorescence was measured in 10 s intervals for 2 min. The final concentration of ethanol was 0.25% in these assays. The average baseline fluorescence of each well was subtracted from the stimulated fluorescent values to calculate the change (Δ) in RFU's and graphed as shown.
Cells loaded with fluo-4 were treated and observed with an Axioskop 2 microscope (Zeiss, Oberkochen, Germany) using a fluorescent illuminator HXP-120 light source and images were acquired at 30, 60, or 120 sec after stimulation with a AxioCam MRc5 camera (Zeiss) and AxioVision software (Zeiss).

For test [3], the system named is RAW 264.7 macrophage-like cells. Put plainly: Fluo-4 calcium assay, RAW 264.7 cells. In kind it is cell-based, mouse. Conditions: 1 μM A23187, 100 μM A15, at 1 min. How it is done:
as §1, §2

In the case of `CCCCCCC/C=C/C=C/C(=O)NCC(C)C` [A15, (2E,4E)-N-Isobutyldodeca-2,4-dienamide], the results for the “suppression of calcium influx” value in test [1] and in test [3] were 43.6% and 60.2%, respectively. In test [2] (RBL-2H3 cells treated with IgE anti-DNP and DNP-BSA), the calcium response entry was “blocked the calcium response”. In test [2] (Rattus norvegicus, 1 min, A23187-treated RBL-2H3 cells, 100 μM, 1 min post-stimulation, read-out: inhibition of rise in intracellular calcium), the inhibition (as a rule, the share of the control response that was lost under treatment) at 100 µM turned out to be 83.2%. In test [2] (unstimulated RBL-2H3 cells, 100 μM, pixel intensity, n=5 fields), the “constitutive fluorescence in unstimulated cells, compared to vehicle” value is on record as “did not cause a significant change in the level of constitutive fluorescence”.
